In patent publication EP4567031A1, “HPK1 INHIBITOR, PREPARATION METHOD THEREFOR, AND USE THEREOF” (Beijing Earthwise Technology Co., Ltd., priority 2022, dated 2024):

Key:
[1] = biological target: HPK1 (Homo sapiens, UniProt Q92918); assay: HPK1 ADP-Glo kinase assay; type: biochemical; conditions: 40 µM ATP; 5 nM HPK1; MBP protein substrate
Protocol: 1×kinase buffer (40 mM Tris-HCl (pH 7.5), 20 mM MgCl2, 0.1 mg/ml BSA, 0.05 mM DTT), 2 µM MBP protein and 40 µM ATP, […] were included in the reaction mixture. The reaction was initiated by adding 5 nM HPK1. After 60 minutes of reaction, the assay was terminated by adding 5 µL of ADP-Glo™ reagent. After 60 minutes, 10 µL of kinase assay reagent was added. After being incubated at room temperature for 60 minutes, the assay plate was read by EnVision multi-function microplate reader.
The luminescent signal value was converted to the percentage of inhibition. Inhibition % = (maximum value - sample value) / (maximum value - minimum value)×100. The minimum value refers to the value measured in a well without enzyme but with DMSO and substrate, and the maximum value refers to the value measured in a well with DMSO, enzyme and substrate. IC50 values were calculated by XLFit (version 5.3.1.3) in Excel. Equation: Y = bottom + (top - bottom) / (1 + (IC50/X) ^ HillSlope).

[2] = test system: Phospho-SLP-76 (Ser376); assay: Phospho-SLP-76 (Ser376) HTRF assay in Jurkat E6-1 cells; type: cell-based; conditions: Homo sapiens, compound 4 hours, then anti-CD3 antibody 20 minutes, read-out: pSLP76, IC50
Protocol: A compound was dissolved in DMSO to 10 mM, and then diluted three-fold with DMSO to 10 dosages in a 96-well plate. Then, 3 µL of the diluted compound sample was transferred to a 96-well plate with 97 µL of cell culture medium, and the plate was shaken for 5 minutes. According to the experimental design diagram, 7.5 µL of the diluted compound sample was transferred to a cell plate. Final concentrations of the compound in this assay were 10000.00, 3333.33, 1111.11, 370.37, 123.46, 41.15, 13.72, 4.57, 1.52 and 0.51 nM.
In this assay, the density of Jurkat E6-1 cells was maintained between 3*10^5 to 3*10^6 cells/mL. The cell culture was replaced with fresh culture medium every 2 to 3 days (depending on the cell density).
30 µL of Jurkat E6-1 (300,000 cells) was added to a 96-well plate and incubated in a 37 °C incubator for 1 hour. Then, according to the experimental design diagram, compounds (6×, 7.5 µL) were added to treat the cells for 4 hours, respectively. After 4 hours, purified anti-human anti-CD3 antibodies (6×, 7.5 µL) were added to treat the cells for 20 minutes. After 20 minutes, 15 µL of cell lysis buffer (4×) was added, and the cells were lysed at 25 °C with shaking (250 rpm) for 1 hour. Then, according to the experimental design diagram, 16 µL of cell lysate was transferred to a 384-well plate using a pipette. After the transfer, 4 µL of antibody detection mixture was added. After being placed at room temperature overnight, the plate was read by EnVision multi-function microplate reader to read the FRET signal (the ratio of HTRF 665/615 was calculated from the readings at 665 nm and 615 nm).
The ratio of the signal at 665 nm to the signal at 615 nm was converted to the percentage of inhibition. Inhibition % = (maximum value - sample value) / (maximum value - minimum value)×100. The minimum value refers to the signal value of a well without anti-CD3 antibody stimulation during the treatment of cells, and the maximum value refers to the signal value of a well with anti-CD3 antibody stimulation but without the compound during the treatment of cells. IC50 values were calculated by XLFit (version 5.3.1.3) in excel. Equation: Y = Bottom + (Top-Bottom) / (1 + (IC50/X) ^ HillSlope). Table 4. Results of cellular activity of the compounds

[3] = test system: human Pan T cells; assay: Human Pan T cell IL-2 ELISA; type: cell-based; conditions: Homo sapiens, T-cell, 48 h, Anti-CD3 and Anti-CD28, supernatant IL-2 ELISA, read-out: IL-2 release, EC50
Outline: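 Human Pan T cells (1×10^6 cells/ml) stimulated with plate-bound anti-CD3 plus anti-CD28 and treated 48 h with compound at 9 final concentrations, 39.063–10000 nM. Supernatant IL-2 by ELISA, expressed as fold over DMSO wells; EC50 from four-parameter logistic fit.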

Chain of HPK1 (Q92918 whole entry, species assumed): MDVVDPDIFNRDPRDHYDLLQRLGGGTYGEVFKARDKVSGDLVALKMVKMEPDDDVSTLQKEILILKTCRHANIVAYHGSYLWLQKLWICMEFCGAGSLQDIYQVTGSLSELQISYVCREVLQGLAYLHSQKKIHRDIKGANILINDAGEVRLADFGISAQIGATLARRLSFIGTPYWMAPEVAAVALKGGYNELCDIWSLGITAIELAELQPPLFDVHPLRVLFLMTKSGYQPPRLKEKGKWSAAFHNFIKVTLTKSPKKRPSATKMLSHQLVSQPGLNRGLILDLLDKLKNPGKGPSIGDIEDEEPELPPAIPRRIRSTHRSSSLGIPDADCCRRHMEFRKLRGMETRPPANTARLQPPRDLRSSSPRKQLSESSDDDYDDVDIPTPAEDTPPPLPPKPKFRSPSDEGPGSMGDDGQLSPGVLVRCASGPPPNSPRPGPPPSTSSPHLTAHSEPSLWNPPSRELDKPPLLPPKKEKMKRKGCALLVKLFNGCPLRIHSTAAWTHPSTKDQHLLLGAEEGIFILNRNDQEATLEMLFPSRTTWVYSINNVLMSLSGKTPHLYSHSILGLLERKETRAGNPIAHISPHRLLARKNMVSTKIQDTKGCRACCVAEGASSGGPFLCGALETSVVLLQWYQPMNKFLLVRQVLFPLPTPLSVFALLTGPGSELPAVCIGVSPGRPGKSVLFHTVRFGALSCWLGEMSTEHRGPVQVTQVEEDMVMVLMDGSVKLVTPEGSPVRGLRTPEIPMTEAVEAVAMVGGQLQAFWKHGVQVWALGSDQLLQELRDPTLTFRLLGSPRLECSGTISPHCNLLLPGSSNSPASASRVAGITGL

| Structure (SMILES) | IC50 [1] [nM] | IC50 [2] [nM] | EC50 [3] [nM] |
| --- | --- | --- | --- |
| COc1cccn2c(-c3cc4c(c5c(=O)[nH]ccc35)Nc3ccc(N5CCOCC5)cc3C4(C)C)cnc12 [Example 3] | 0.3 | 57.5 | 38 |
| COc1cccn2c(-c3cc4c(c5c(=O)[nH]ccc35)Nc3ccc(N5CCOC(C(C)(C)O)C5)cc3C4(C)C)cnc12 (stereo not drawn) [Example 2] | 1.7 | 64 |  |
| Cc1ccn2c(-c3cc4c(c5c(=O)[nH]ccc35)Nc3ccc(N5CCOCC5)cc3C4(C)C)cnc2c1F [Example 5] | 3.44 |  | 10.8 |
| CC1(C)c2cc(N3CCOCC3)ccc2Nc2c1cc(-c1cnc3c(Cl)cccn13)c1cc[nH]c(=O)c21 [Example 1] | 0.1 | 121 |  |
